Where two headings read alike, the source gives them in different places.
What was measured:
CYP3A4 = CYP3A4 (Homo sapiens (Human), UniProt P08684); test: CYP3A4 inhibitory activity: Luciferin-IPA (P450-Glo) assay with human liver microsome
Experimental: Cytochrome P450 activity may be determined by a P450-Glo™ assay (Promega) with human liver microsomes wherein the compounds of the present disclosure are dosed at different concentrations in buffer and incubated. Dose-response curve and IC50 data may be obtained and fit to a nonlinear regression model using GraphPad Prism software (v6.0).
The standard final Compound concentrations were 37, 111, 333, 1000, and 3000 nM. 12.5 μL of the Compound dilutions were transferred to a white 96-well plate. 1450 μL (enough for a whole plate) of 4× assay buffer (400 mM potassium phosphate buffer (10 mL 1M potassium phosphate buffer: 8.02 mL 1M K2HPO4+1.98 mL 1M KH2PO4 (1.4 g K2HPO4+0.27 g KH2PO4 in 10 mL H2O), 32 μM Luciferin-IPA (Promega V9002)) 580 μl of 1 M K3PO4 buffer, 870 μL H2O, 14 μL of 3 mM Luciferin-IPA, and 18 μL of human liver microsome (Sigma M0317-1VL) was made. 12.5 μL of 4× assay buffer was added to each well. For the well of blank control, 12.5 μL of 4× assay buffer without liver microsome was added. The plate was incubated at room temperature for 15 minutes. 2.75 mL NADPH buffer was made as follows: 2.42 mL H2O, 275 μL solution A and 55 μL solution B (NADPH regeneration system, Promega V9510). 25 μL of the buffer was added to each well. The plates were incubated at 37° C. for 11 minutes. 50 μL of luciferin detection reagent (Promega V9002) was added and the plates were incubated at room temperature for 5 minutes. The plate was read with a luminometer.
The dose-response curve and IC50 were obtained by fitting data to nonlinear regression model using GraphPad Prism software (v6.0).

P-glycoprotein = P-glycoprotein (Homo sapiens (Human), UniProt P08183); test: P-glycoprotein inhibitory activity: MTT cell growth assay in P-gp overexpressing MES-SA/DX5 cells with docetaxel or paclitaxel; type: cell-based; settings: 3 days, with 100 nM docetaxel or 200 nM paclitaxel, MTT readout
Experimental: P-glycoprotein inhibitory activity may be determined by an assay wherein P-glycoprotein overexpressed cell lines are treated with increasing concentrations of a compound of the present disclosure and therapeutic agent for three days, followed by an MTT assay.
Cell growth percentage may be calculated with the following equation: Cell growth percentage=(T−T0)/(C−T0)×100%, wherein T is OD of the test well exposure to Compound; C is OD of the control well without Compound treatment; and T0 is OD at time zero.
A P-glycoprotein overexpressing cell line derived from the human uterine sarcoma cell line MES-SA (i.e., MES-SA/DX5 cells (ATCC)) was seeded by stepwise exposures to increasing concentrations of doxorubicin, in a 96-well plate at 6,500 cells/100 μL media (McCoy's 5A+10% FBS) in each well. The cells were incubated overnight at 37° C. 5% CO2. Compounds were diluted in a separate 96-well plate to yield 11× of final concentration (final Compound concentrations were 0, 5, 20, 80, 320, and 1280 nM and the final docetaxel concentration was 100 nM or the final paclitaxel concentration was 200 nM). DMSO was used as a negative control and known P-glycoprotein inhibitor, encequidar methane sulfonic acid monohydrate (HM30181A), was used as a positive control. 10 μL of the 11× dilutions was added to the appropriate well, P-glycoprotein inhibition wells comprised Compound+docetaxel (or Compound+paclitaxel). The compound toxicity wells comprised 1280 nM Compound+10 μL of culture media. Treated the cells were incubated for 3 days at 37° C. 5% CO2.
To value (reflecting the starting number of cells upon Compound treatment) of 3 wells of cells was determined by performing the following steps 1-4 as described below.
1. 10 μL MTT (5 mg/mL in PBS) was added to each well and incubated for 1.5 hours at 37° C. 5% CO2.
2. Culture media was removed and 100 μL of DMSO was added to each well.
3. The plate was gently shook until all purple MTT formazan crystals were dissolved. OD540 was then measured using microplate reader.
4. Cell growth percentage was calculated with the following equation: Cell growth percentage=(T−T0)/(C−T0)×100%, wherein T is OD of the test well exposure to Compound; C is OD of the control well without Compound treatment; and T0 is OD at time zero.

Sequence of P-glycoprotein (P08183 whole entry): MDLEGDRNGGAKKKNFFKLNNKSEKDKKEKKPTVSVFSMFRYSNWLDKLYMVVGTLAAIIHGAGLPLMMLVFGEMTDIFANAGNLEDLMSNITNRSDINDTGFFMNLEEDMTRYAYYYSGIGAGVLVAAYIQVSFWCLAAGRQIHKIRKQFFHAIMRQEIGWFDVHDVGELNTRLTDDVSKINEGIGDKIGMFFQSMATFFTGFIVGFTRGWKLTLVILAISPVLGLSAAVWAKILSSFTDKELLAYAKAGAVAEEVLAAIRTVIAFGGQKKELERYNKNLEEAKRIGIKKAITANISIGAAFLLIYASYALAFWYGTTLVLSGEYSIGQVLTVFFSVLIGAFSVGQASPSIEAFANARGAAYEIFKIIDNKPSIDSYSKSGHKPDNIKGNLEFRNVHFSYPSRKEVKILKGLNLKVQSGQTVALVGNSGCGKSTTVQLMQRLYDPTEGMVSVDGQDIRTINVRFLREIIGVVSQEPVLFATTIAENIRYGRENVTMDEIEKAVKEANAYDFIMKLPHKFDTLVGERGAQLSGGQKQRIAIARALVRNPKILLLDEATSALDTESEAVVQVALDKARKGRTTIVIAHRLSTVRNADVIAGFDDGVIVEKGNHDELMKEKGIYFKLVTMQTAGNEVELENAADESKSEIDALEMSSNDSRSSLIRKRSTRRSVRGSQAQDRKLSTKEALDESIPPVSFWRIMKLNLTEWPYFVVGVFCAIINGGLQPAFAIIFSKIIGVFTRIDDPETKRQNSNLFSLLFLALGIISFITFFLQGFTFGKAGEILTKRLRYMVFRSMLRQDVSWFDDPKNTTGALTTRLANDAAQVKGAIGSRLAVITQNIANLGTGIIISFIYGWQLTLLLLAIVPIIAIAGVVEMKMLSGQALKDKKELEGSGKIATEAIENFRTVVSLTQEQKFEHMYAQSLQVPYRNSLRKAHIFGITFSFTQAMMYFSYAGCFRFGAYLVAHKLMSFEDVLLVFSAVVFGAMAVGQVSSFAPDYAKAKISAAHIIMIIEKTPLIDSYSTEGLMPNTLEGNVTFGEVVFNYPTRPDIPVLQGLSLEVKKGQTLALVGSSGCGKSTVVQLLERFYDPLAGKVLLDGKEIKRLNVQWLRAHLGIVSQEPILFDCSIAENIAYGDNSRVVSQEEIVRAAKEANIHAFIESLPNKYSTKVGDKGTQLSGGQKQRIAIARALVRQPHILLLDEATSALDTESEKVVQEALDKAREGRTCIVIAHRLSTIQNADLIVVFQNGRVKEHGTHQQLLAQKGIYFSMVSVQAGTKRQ
Sequence of CYP3A4 (P08684 whole entry): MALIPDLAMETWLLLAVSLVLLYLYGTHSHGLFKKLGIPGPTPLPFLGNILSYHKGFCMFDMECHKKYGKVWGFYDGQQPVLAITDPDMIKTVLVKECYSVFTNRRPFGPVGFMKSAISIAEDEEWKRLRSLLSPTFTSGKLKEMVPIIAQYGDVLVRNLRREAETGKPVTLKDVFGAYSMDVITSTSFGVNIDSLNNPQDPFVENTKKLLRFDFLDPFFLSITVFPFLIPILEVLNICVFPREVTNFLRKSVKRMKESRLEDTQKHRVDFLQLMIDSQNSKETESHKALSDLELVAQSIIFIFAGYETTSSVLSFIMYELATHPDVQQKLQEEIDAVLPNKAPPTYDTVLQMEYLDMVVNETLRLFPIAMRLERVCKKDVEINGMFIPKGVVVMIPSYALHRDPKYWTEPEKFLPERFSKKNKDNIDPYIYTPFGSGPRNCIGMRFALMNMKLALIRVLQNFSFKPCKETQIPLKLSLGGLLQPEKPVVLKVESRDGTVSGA

Structure (SMILES)	IC50 (CYP3A4; human, microsomes, 11 min)	EC50 (P-glycoprotein)	IC50 (CYP3A4)
COc1cc(NC(=O)c2cc(=O)c3ccccc3o2)c(-c2nnn(-c3ccc(CCN4CCc5cc(-n6ccnc6)ccc5C4)cc3)n2)cc1OC [Compound 8, N-(2-(2-(4-(2-(6-(1H-Imidazol-1-yl)-3,4-dihydroisoquinolin-2(1H)-yl)ethyl)phenyl)-2H-tetrazol-5-yl)-4,5-dimethoxyphenyl)-4-oxo-4H-chromene-2-carboxamide]	–	> 1000 nM	100 to 250 nM
COc1cc2c(cc1OC)CN(CCc1ccc(-n3nnc(-c4cc(Oc5ccncc5)ccc4NC(=O)c4cc(=O)c5ccccc5o4)n3)cc1)CC2 [Compound 25, N-(2-(2-(4-(2-(6,7-Dimethoxy-3,4-dihydroisoquinolin-2(1H)-yl)ethyl)phenyl)-2H-tetrazol-5-yl)-4-(pyridin-4-yloxy)phenyl)-4-oxo-4H-chromene-2-carboxamide]	> 1000 nM	500 to 1000 nM	–
COc1cc2c(cc1OC)CN(CCc1ccc(-n3nnc(-c4cc(OC)c(OC)cc4NC(=O)c4cc(=O)c5cc(-c6ccncc6)ccc5o4)n3)cc1)CC2 [Compound 19, N-(2-(2-(4-(2-(6,7-Dimethoxy-3,4-dihydroisoquinolin-2(1H)-yl)ethyl)phenyl)-2H-tetrazol-5-yl)-4,5-dimethoxyphenyl)-4-oxo-6-(pyridin-4-yl)-4H-chromene-2-carboxamide]	> 1000 nM	> 1000 nM	–
COc1cc(NC(=O)c2cc(=O)c3ccc(C)cc3o2)c(-c2nnn(-c3ccc(CCN(Cc4cccc(-n5ccnc5)c4)Cc4ccc5c(cnn5C)c4)cc3)n2)cc1OC [Compound 5, N-(2-(2-(4-(2-((3-(1H-Imidazol-1-yl)benzyl)((1-methyl-1H-indazol-5-yl)methyl)amino)ethyl)phenyl)-2H-tetrazol-5-yl)-4,5-dimethoxyphenyl)-7-methyl-4-oxo-4H-chromene-2-carboxamide]	> 1000 nM	> 1000 nM	–
COc1cc(NC(=O)c2cnc3ccccc3c2)c(-c2nnn(-c3ccc(CCN(Cc4cccc(-n5ccnc5)c4)Cc4ccc5c(cnn5C)c4)cc3)n2)cc1OC [Compound 4, N-(2-(2-(4-(2-((3-(1H-Imidazol-1-yl)benzyl)((1-methyl-1H-indazol-5-yl)methyl)amino)ethyl)phenyl)-2H-tetrazol-5-yl)-4,5-dimethoxyphenyl)quinoline-3-carboxamide]	–	500 to 1000 nM	500 to 1000 nM
COc1cc2c(cc1OC)CN(CCc1ccc(-n3nnc(-c4cc(OC)c(OC)cc4NC(=O)c4cc(=O)c5cc(-n6ccnc6)ccc5o4)n3)cc1)CC2 [Compound 20, N-(2-(2-(4-(2-(6,7-Dimethoxy-3,4-dihydroisoquinolin-2(1H)-yl)ethyl)phenyl)-2H-tetrazol-5-yl)-4,5-dimethoxyphenyl)-6-(1H-imidazol-1-yl)-4-oxo-4H-chromene-2-carboxamide]	> 1000 nM	> 1000 nM	–
COc1cc(NC(=O)c2cnc3ccccc3c2)c(-c2nnn(-c3ccc(CCN4CCc5cnccc5C4)cc3)n2)cc1OCc1ccccc1 [Compound 17, N-(4-(Benzyloxy)-2-(2-(4-(2-(3,4-dihydro-2,6-naphthyridin-2(1H)-yl)ethyl)phenyl)-2H-tetrazol-5-yl)-5-methoxyphenyl)quinoline-3-carboxamide]	500 to 1000 nM	–	–
COc1cc(NC(=O)c2cc(=O)c3ccccc3o2)c(-c2nnn(-c3ccc(CCN4CCc5cc(OC)c(OCCn6ccnc6)cc5C4)cc3)n2)cc1OC [Compound 14, N-(2-(2-(4-(2-(7-(2-(1H-Imidazol-1-yl)ethoxy)-6-methoxy-3,4-dihydroisoquinolin-2(1H)-yl)ethyl)phenyl)-2H-tetrazol-5-yl)-4,5-dimethoxyphenyl)-4-oxo-4H-chromene-2-carboxamide]	–	> 1000 nM	–

Results, then the compound that gave them:

IC50 (CYP3A4; human, microsomes, 11 min)	EC50 (P-glycoprotein)	IC50 (CYP3A4)	Structure (SMILES)
> 1000 nM	< 100 nM	–	COc1cc2c(cc1OC)CN(CCc1ccc(-n3nnc(-c4cc(Oc5cccnc5)ccc4NC(=O)c4cc(=O)c5ccccc5o4)n3)cc1)CC2 [Compound 24, N-(2-(2-(4-(2-(6,7-Dimethoxy-3,4-dihydroisoquinolin-2(1H)-yl)ethyl)phenyl)-2H-tetrazol-5-yl)-4-(pyridin-3-yloxy)phenyl)-4-oxo-4H-chromene-2-carboxamide]
–	100 to 250 nM	500 to 1000 nM	COc1cc(NC(=O)c2cc(=O)c3ccccc3o2)c(-c2nnn(-c3ccc(CCN4CCc5cnccc5C4)cc3)n2)cc1OC [Compound 7, N-(2-(2-(4-(2-(3,4-Dihydro-2,6-naphthyridin-2(1H)-yl)ethyl)phenyl)-2H-tetrazol-5-yl)-4,5-dimethoxyphenyl)-4-oxo-4H-chromene-2-carboxamide]
> 1000 nM	< 100 nM	–	COc1cc2c(cc1OC)CN(CCc1ccc(-n3nnc(-c4cc(OCc5cccnc5)c(OC)cc4NC(=O)c4cc(=O)c5ccccc5o4)n3)cc1)CC2 [Compound 30, N-(2-(2-(4-(2-(6,7-Dimethoxy-3,4-dihydroisoquinolin-2(1H)-yl)ethyl)phenyl)-2H-tetrazol-5-yl)-5-methoxy-4-(pyridin-3-ylmethoxy)phenyl)-4-oxo-4H-chromene-2-carboxamide]
> 1000 nM	< 100 nM	–	COc1cc(NC(=O)c2cc(=O)c3ccccc3o2)c(-c2nnn(-c3ccc(CCN4CCc5cnccc5C4)cc3)n2)cc1OCc1ccccc1 [Compound 12, N-(4-(Benzyloxy)-2-(2-(4-(2-(3,4-dihydro-2,6-naphthyridin-2(1H)-yl)ethyl)phenyl)-2H-tetrazol-5-yl)-5-methoxyphenyl)-4-oxo-4H-chromene-2-carboxamide]
> 1000 nM	< 100 nM	–	COc1cc2c(cc1OC)CN(CCc1ccc(-n3nnc(-c4cc(OCc5ccccc5)c(OC)cc4NC(=O)c4cc(=O)c5ccccc5o4)n3)cc1)CC2 [Compound 29, N-(4-(Benzyloxy)-2-(2-(4-(2-(6,7-dimethoxy-3,4-dihydroisoquinolin-2(1H)-yl)ethyl)phenyl)-2H-tetrazol-5-yl)-5-methoxyphenyl)-4-oxo-4H-chromene-2-carboxamide]
> 1000 nM	< 100 nM	–	COc1cc2c(cc1OC)CN(CCc1ccc(-n3nnc(-c4cc(OCc5cccnc5)ccc4NC(=O)c4cc(=O)c5ccccc5o4)n3)cc1)CC2 [Compound 27, N-(2-(2-(4-(2-(6,7-Dimethoxy-3,4-dihydroisoquinolin-2(1H)-yl)ethyl)phenyl)-2H-tetrazol-5-yl)-4-(pyridin-3-ylmethoxy)phenyl)-4-oxo-4H-chromene-2-carboxamide]
–	< 100 nM	500 to 1000 nM	COc1cc(NC(=O)c2cnc3ccccc3c2)c(-c2nnn(-c3ccc(CCN4CCc5cnccc5C4)cc3)n2)cc1OCc1ccccc1 [Compound 13, N-(4-(Benzyloxy)-2-(2-(4-(2-(3,4-dihydro-2,6-naphthyridin-2(1H)-yl)ethyl)phenyl)-2H-tetrazol-5-yl)-5-methoxyphenyl)quinoline-3-carboxamide]
–	100 to 250 nM	100 to 250 nM	COc1cc(NC(=O)c2cnc3ccccc3c2)c(-c2nnn(-c3ccc(CCN4CCc5cnccc5C4)cc3)n2)cc1OC [Compound 2, N-(2-(2-(4-(2-(3,4-Dihydro-2,6-naphthyridin-2(1H)-yl)ethyl)phenyl)-2H-tetrazol-5-yl)-4,5-dimethoxyphenyl)quinoline-3-carboxamide]
–	< 100 nM	–	COc1cc2c(cc1OC)CN(CCc1ccc(NC(=O)c3cc(OC)c(OC)cc3NC(=O)c3cnc4ccccc4c3)cc1)CC2 [Tariquidar, reference compound]
> 1000 nM	< 100 nM	–	COc1cc2c(cc1OC)CN(CCc1ccc(-n3nnc(-c4cc(OC)c(OC)cc4NC(=O)c4cc(=O)c5ccccc5o4)n3)cc1)CC2 [Encequidar methanesulfonate monohydrate, reference compound]
